How the values were obtained:
Test in all cases: relative viability (nuclei count vs DMSO), 5 days (fraction); higher = more cells survive
[1] = compound: O[C@H]1CC[C@H](Nc2ncc3nc(Nc4c(F)cc(F)cc4F)n([C@H]4CCOC4)c3n2)CC1 [Tanzisertib] + CC(=O)c1c(C)c2cnc(Nc3ccc(N4CCNCC4)cn3)nc2n(C2CCCC2)c1=O [Palbociclib] (partner 0.5 µM)
Method in brief: (§1)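 Five library-drug doses in √10 steps were combined with a fixed anchor-drug dose, or a single drug was given alone, by pin tool to lung cancer cell lines in 1536-well plates the day after seeding. Nuclei were stained and counted after 5 days. Relative viability is the nuclei count in treated wells over that in vehicle wells, taken as the median of duplicate plates.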

[2] = compound: O[C@H]1CC[C@H](Nc2ncc3nc(Nc4c(F)cc(F)cc4F)n([C@H]4CCOC4)c3n2)CC1 [Tanzisertib] + CS(=O)(=O)N1CCN(Cc2cc3nc(-c4cccc5[nH]ncc45)nc(N4CCOCC4)c3s2)CC1 [Pictilisib] (partner 1 µM)
Method in brief: as §1

[3] = compound: O[C@H]1CC[C@H](Nc2ncc3nc(Nc4c(F)cc(F)cc4F)n([C@H]4CCOC4)c3n2)CC1 [Tanzisertib] + COc1cc2c(Oc3ccc(NC(=O)C4(C(=O)Nc5ccc(F)cc5)CC4)cc3F)ccnc2cc1OCCCN1CCOCC1 [Foretinib] (partner 0.25 µM)
Method in brief: as §1

[4] = compound: C[C@@H](N)c1ccc(C(=O)Nc2ccnc3[nH]ccc23)cc1 + COc1cccc2cc(-c3nc([C@H]4CC[C@H](C(=O)O)CC4)n4ncnc(N)c34)[nH]c12 [OSI-027] (partner 0.5 µM)
Method in brief: as §1

| Cell Line | relative viability ([1]; first compound 0.08 µM) | relative viability ([1]; first compound 0.253 µM) | relative viability ([1]; first compound 0.8 µM) | relative viability ([1]; first compound 2.53 µM) | relative viability ([1]; first compound 8 µM) | relative viability ([2]; first compound 0.08 µM) | relative viability ([2]; first compound 0.253 µM) | relative viability ([2]; first compound 0.8 µM) | relative viability ([2]; first compound 2.53 µM) | relative viability ([2]; first compound 8 µM) | relative viability ([3]; first compound 0.08 µM) | relative viability ([3]; first compound 0.253 µM) | relative viability ([3]; first compound 0.8 µM) | relative viability ([3]; first compound 2.53 µM) | relative viability ([3]; first compound 8 µM) | relative viability ([4]; first compound 0.04 µM) | relative viability ([4]; first compound 0.1265 µM) | relative viability ([4]; first compound 0.4 µM) | relative viability ([4]; first compound 4 µM) | relative viability ([4]; first compound 1.265 µM) |
| --- | --- | --- | --- | --- | --- | --- | --- | --- | --- | --- | --- | --- | --- | --- | --- | --- | --- | --- | --- | --- |
| LK-2 | 0.526 | 0.618 | 0.798 | 0.659 | 0.749 | 0.515 | 0.578 | 0.477 | 0.463 | 0.435 | 1.26 | 1.01 | 1.11 | 1.03 | 1.46 | 0.295 | 0.176 | 0.212 | 0.249 | – |
| LOU-NH91 | 0.584 | 0.558 | 0.532 | 0.556 | 0.414 | 0.516 | 0.544 | 0.573 | 0.51 | 0.443 | 0.914 | 0.946 | 0.903 | 0.87 | 0.639 | 0.626 | 0.667 | 0.688 | 0.591 | 0.601 |
| NCI-H522 | 1.05 | 0.984 | 0.959 | 1.13 | 0.899 | – | – | – | – | – | – | – | – | – | – | 0.657 | 0.67 | 0.78 | 0.737 | 0.764 |
| NCI-H596 | – | – | – | – | – | 0.408 | 0.407 | 0.42 | 0.394 | 0.451 | 0.723 | 0.82 | 0.724 | 0.699 | 0.76 | 0.643 | 0.592 | 0.747 | 0.709 | – |
| NCI-H1299 | – | – | – | – | – | 0.762 | 0.713 | 0.699 | 0.893 | 0.729 | 1.08 | 1.1 | 1.09 | 1.15 | 1.23 | – | – | – | – | – |
| NCI-H1563 | – | – | – | – | – | 0.661 | 0.638 | 0.572 | 0.601 | 0.607 | 0.983 | 0.854 | 0.896 | 0.96 | 0.72 | 0.796 | 0.767 | 0.679 | 0.846 | 0.816 |
| NCI-H1623 | – | – | – | – | – | – | – | – | – | – | 0.956 | 0.815 | 0.912 | 0.834 | 0.788 | 0.559 | 0.418 | 0.502 | 0.503 | 0.469 |
| NCI-H1648 | 0.228 | 0.267 | 0.212 | 0.229 | 0.251 | – | – | – | – | – | – | – | – | – | – | 0.265 | 0.301 | 0.267 | 0.346 | 0.289 |
| NCI-H1703 | – | – | – | – | – | 0.272 | 0.245 | 0.258 | 0.224 | 0.218 | 0.406 | 0.371 | 0.359 | 0.262 | 0.261 | – | – | – | – | – |
| NCI-H1792 | 0.7 | 0.66 | 0.654 | 0.64 | 0.573 | 0.307 | 0.261 | 0.29 | 0.231 | 0.243 | – | – | – | – | – | 0.796 | 0.77 | 0.736 | 0.65 | 0.869 |
| NCI-H2342 | 0.539 | 0.542 | 0.52 | 0.497 | 0.582 | – | – | – | – | – | 1.21 | 0.977 | 1.03 | 0.982 | 1.08 | 0.711 | 0.694 | 0.763 | 0.675 | 0.655 |
| SW 900 | – | 0.522 | 0.557 | 0.56 | 0.454 | – | – | – | – | – | 1.02 | 0.784 | 1.07 | 0.924 | 0.787 | 0.657 | 0.608 | 0.596 | 0.824 | 0.688 |
